Assay results as given in US5314886A, “N-substituted lactams useful as cholecystokinin antagonists” (priority 1992, dated 1994).

What was measured:
[1] = molecular target: T1, CCK-B (Cavia porcellus, UniProt H0VZC5); assay: Displacement of 125I-CCK-OP binding to guinea pig brain homogenates (CCK-B binding); details: guinea pig brain membranes; for inhibition at 10 µM: read-out: CCK-B binding GP brain membranes: percent displacement of 125I-CCK-OP
T1 construct: Rat pancreas or guinea pig brain was homogenized; from tissue; host or cells: guinea pig brain homogenate (membrane pellet)
T1 sequence (H0VZC5 1-426): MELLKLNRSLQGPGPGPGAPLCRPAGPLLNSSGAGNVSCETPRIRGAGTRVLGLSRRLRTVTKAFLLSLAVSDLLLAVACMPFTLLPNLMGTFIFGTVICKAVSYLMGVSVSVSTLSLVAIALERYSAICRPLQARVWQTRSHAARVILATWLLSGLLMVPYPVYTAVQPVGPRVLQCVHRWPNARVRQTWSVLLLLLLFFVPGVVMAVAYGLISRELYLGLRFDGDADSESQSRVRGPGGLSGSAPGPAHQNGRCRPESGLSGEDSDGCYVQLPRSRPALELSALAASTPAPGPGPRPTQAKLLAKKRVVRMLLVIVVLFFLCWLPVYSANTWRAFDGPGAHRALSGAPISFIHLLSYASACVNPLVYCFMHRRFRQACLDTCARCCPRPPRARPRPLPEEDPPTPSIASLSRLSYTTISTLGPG
Experimental: Percent displacement of ^125 I-CCK-OP binding to rat pancreatic membrane and guinea pig brain homogenates by compounds of the instant invention at different concentrations was used to quantify CCK-A and CCK-B receptor binding, respectively.
Binding of 125-CCK-OP to rat pancreas (CCK-A) and guinea pig brain (CCK-B) homogenates.
Rat pancreas or guinea pig brain was homogenized in 50 and 20 volumes, respectively, of 50 mM Tris-HCl buffer (pH 7.8 at 25° C.) with a Brinkmann polytron homogenizer. The homogenates were centrifuged twice at 50,000 x g for 20 min with an intermediate rehomogenization in fresh buffer. The final pellets were resuspended in 20 volumes (brain) or 40 volumes (pancreas) of incubation buffer [50 mM Tris-HCl, 5 mM MgCl2, 0.2% BSA, 5 mM dithiothreitol, 0.14 mg/ml bacitracin, pH 7.9 at 25° C.]. One milliliter of the final homogenate from brain or pancreas was diluted to 50 mL with incubation buffer to use in the binding assay.
Binding experiments were performed in a final volume of 1 mL in 13×100 mm borosilicate disposable culture tubes. To duplicate tubes were added 890 μL of freshly resuspended pancreas or brain homogenate; 73,000 dpm of […] (final concentration, 12 pM) and 10 μL of DMSO containing displacing agents (compounds or reference compounds, at the desired final concentrations). Nonspecific (nonsaturable) binding was determined in the presence of 1 μM unlabeled CCK-OP. After incubation for 30 min at 37° C. the binding was stopped by rapid filtration under a reduced pressure through glass fiber FPD-105 Whatman GF/B filters on Harvester and washed twice with 5 mL of ice-cold Tris buffer (50 mM Tris-HCl, pH 7.8). The radioactivity on the filters was counted in a gama counter. […] Specific binding was defined as the excess binding over that in blanks containing 1 μM unlabeled CCK-OP.
Determination of IC50 for displacing agents

[2] = tested on: CCK receptors; assay: Rat gastric emptying: reversal of CCK-delayed gastric emptying; type: in vivo; details: CCK 100 μg/Kg i.p.; for CCK-delayed gastric emptying: ED50: IP
Experimental: Rat Gastric Emptying Protocol
A test meal for measuring gastric emptying in rats was prepared. Ten grams of methylcellulose (2% solution=15 centipoises; Aldrich Chemical Company, Milwaukee, Wisc. was added to 200ml of cold water and mixed at 20,000 rpm in a Waring blender to insure dispersion and hydration of the methylcellulose. In addition, two beef bouillon cubes (Wyler's, Columbus, Ohio) dissolved in 100 ml of warm water was added to the mixture, followed by 16 g of casein (Hammersten, Schwartz/Mann, Orangeburg, N.Y.), 8 g of powdered confectioners sugar and 8 g of cornstarch. The ingredients were mixed for two minutes at 20,000 rpm and the resultant test meal was refrigerated for 48 hours to allow trapped air to escape. Male Charles River Rats, Crl: COBS, CD (SD) BR Strain, 180-200 g body weight, were used in groups of six animals. The animals were food deprived for 24 hours prior to the experiment with access to water ad libitum. The compounds to be evaluated were prepared in a 0.5% aqueous methylcellulose solution. If insoluble, the mixture was homogenized for two minutes at 5500 rpm using a Try-R-Stir-R. The compounds were given intraperitoneally or intragastrically at a volume of 5 ml/kg, 60 minutes or 90 min, respectively, before the test meal. Control animals received only the vehicle. Cholecystokinin (100 μg/Kg, i.p.) was given 30 minutes before the test meal to delay gastric emptying by an effect elicited through CCK receptors. Sixty minutes after the test meal (2.0 ml/rat, i.g.), the rats were sacrificed by CO2 asphyxiation. The stomachs were removed intact and weighed. The stomachs were kept opened, gently rinsed with tap water, blotted dry with paper toweling, and the empty stomach weighed. The difference between the weight of the full and empty stomach is indicative of the amount of meal remaining in the stomach. The amount of meal remaining in the stomach was subtracted from the weight of 3 ml of the test meal to determine the amount of food emptied from the stomach during the test. Weight of the test meal was determined by weighing three samples (3 ml) at the beginning and three samples at the end of each experiment and calculating the mean. The mean and standard error of the amount of meal emptied were calculated for at least 5 doses of compound, and expressed as percent change from control.

[3] = molecular target: T2, CCK-A (Rattus norvegicus, UniProt P30551); assay: Displacement of 125I-CCK-OP binding to rat pancreatic membranes (CCK-A binding); details: 125I-CCK-OP
T2 sequence (P30551 1-444): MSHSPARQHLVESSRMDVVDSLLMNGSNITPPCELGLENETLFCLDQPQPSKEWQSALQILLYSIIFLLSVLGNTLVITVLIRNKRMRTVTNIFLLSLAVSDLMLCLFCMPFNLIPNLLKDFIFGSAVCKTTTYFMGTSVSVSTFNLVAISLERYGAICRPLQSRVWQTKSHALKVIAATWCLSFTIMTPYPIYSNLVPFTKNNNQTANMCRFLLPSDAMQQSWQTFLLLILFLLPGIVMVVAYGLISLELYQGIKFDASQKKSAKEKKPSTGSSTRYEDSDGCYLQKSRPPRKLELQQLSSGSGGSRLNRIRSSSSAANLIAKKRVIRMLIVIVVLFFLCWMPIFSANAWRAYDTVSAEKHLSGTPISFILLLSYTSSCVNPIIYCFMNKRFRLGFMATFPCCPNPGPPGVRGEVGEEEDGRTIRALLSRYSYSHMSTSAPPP

Row | inhibition at 10 µM [1] [%] | IC50 [3] [nM] | IC50 ([1]; 125I-CCK-OP, read-out: CCK-B binding GP brain membranes: IC50) [nM] | SMILES | CCK-delayed gastric emptying: ED50 [2] [mpk] | CCK-delayed gastric emptying: % Reversal @ Dose ([2]; 1.0 mpk IP) [%] | CCK-delayed gastric emptying: % Reversal @ Dose ([2]; 3 mpk IP) [%]
1 | 48 | 15 |  | O=C(N[C@@H]1C(=O)N(c2ccccc2)C[C@@H]1C(=O)O)c1ccc2ccccc2c1 (relative stereo) [41 cis] | 0.41 |  | 
2 |  | 17 | 5100 | O=C(N[C@H]1C(=O)N(c2ccccc2)C[C@H]1C(=O)O)c1cc2ccccc2[nH]1 (relative stereo) [Example 29, cis-4-[(1H-indol-2-ylcarbonyl)amino]-5-oxo-1-phenyl-3-pyrrolidinecarboxylicacid] | < 0.1 | 86.3 | 
3 | 35 | 58 |  | O=C(N[C@H]1C(=O)N(c2ccccc2)C[C@H]1C(=O)O)c1ccc(Cl)c(Cl)c1 (relative stereo) [Example 35 (cis), cis-4-[[(3,4-dichlorophenyl)carbonyl]amino]-5-oxo-1-phenyl-3-pyrrolidinecarboxylic acid] |  |  | 57.9
4 | 41 |  |  | O=C(N[C@H]1C(=O)N(c2ccccc2F)C[C@H]1C(=O)O)c1ccc2ccccc2c1 (relative stereo) [Example 44, cis-1-(2-Fluorophenyl)-4-[(2-naphthalenylcarbonyl]amino]-5-oxo-3-pyrrolidinecarboxylic acid] | 1.7 |  | 86
